Measured values as given in patent US20250170050A1, “Use of Nordic plant-based ingredients for supporting a healthy skin microbiome” (Lumene Oy, priority 2022, published 2025).

Test system: Cutibacterium acnes
Experiment: In vitro growth of C. acnes by OD at 600 nm in kinetic for 49 hours, anaerobic
Assay type: cell-based
Conditions: oat xylitol alone
Protocol: In the present study, the effects of 4 compounds and 5 combinations were evaluated on the growth of two bacterial strains: Staphylococcus epidermidis (S. epidermidis) and Cutibacterium acnes (C. acnes). The bacterial strains were grown individually, and the growth of each bacterial strain was determined in presence of the compounds or combinations by optical density (OD) measurement at 600 nm in kinetic for 24 hours for S. epidermidis strain and for 49 hours for C. acnes strain to determine a bacterial growth curve. To determine the effect of the test compounds and combinations on the growth of bacteria, bacterial suspensions were transferred in a 96-well plate containing the compounds, the combinations or glucose tested at 0.1% and 1%. Bacterial cultures were incubated at 37° C. under agitation and under anaerobic condition for C. acnes strain. All experimental conditions were performed in n=3. Optical densities at 600 nm (OD600 nm) were then read in kinetic for 24 hours for S. epidermidis strain and 49 hours for C. acnes strain using a microplate spectrophotometer (EPOCH2, BioTek Instruments). Raw data were analysed using GraphPad PRISM software (growth curves).

## OC[C@@H](O)[C@H](O)[C@@H](O)CO [Xylitol]
  growth of C. acnes: inhibits
